Structures can show the parent of a compound that is named as a salt. Where two headings read alike, the source gives them in different places.
How the values were obtained:
[1] = tested on: MV4-11 cells; test: Cellular proliferation assay (MTS), MV4-11; type: cell-based; details: Homo sapiens
Method in brief: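 FLT3-ITD MV4-11 cells, 10,000/well in DMEM with 0.5% serum, exposed to compounds 3 days at 37 °C, 5% CO2. Viability read colorimetrically after 2 h MTS tetrazolium reduction; WT-FLT3 RS4-11 cells (20,000/well, RPMI 0.5% serum, 2 days) serve as control.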

[2] = biological target: T1, KIT (Homo sapiens, UniProt P10721); test: Binding constant (Kd) measurement, phage-displayed kinase competition binding assay, KIT
T1 construct: made in house
Method in brief: (§1)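 Competition binding used human kinases fused to T7 phage and immobilized ATP-site ligands. Compound binding blocks kinase capture on the solid support. Bound phage-kinase was quantified by plaque assay or qPCR of the phage genome to give Kd.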

[3] = biological target: T2, FLT3 (Homo sapiens, UniProt P36888); test: Binding constant (Kd) measurement, phage-displayed kinase competition binding assay, FLT3
T2 construct: made in house
T2 sequence (P36888 27-993): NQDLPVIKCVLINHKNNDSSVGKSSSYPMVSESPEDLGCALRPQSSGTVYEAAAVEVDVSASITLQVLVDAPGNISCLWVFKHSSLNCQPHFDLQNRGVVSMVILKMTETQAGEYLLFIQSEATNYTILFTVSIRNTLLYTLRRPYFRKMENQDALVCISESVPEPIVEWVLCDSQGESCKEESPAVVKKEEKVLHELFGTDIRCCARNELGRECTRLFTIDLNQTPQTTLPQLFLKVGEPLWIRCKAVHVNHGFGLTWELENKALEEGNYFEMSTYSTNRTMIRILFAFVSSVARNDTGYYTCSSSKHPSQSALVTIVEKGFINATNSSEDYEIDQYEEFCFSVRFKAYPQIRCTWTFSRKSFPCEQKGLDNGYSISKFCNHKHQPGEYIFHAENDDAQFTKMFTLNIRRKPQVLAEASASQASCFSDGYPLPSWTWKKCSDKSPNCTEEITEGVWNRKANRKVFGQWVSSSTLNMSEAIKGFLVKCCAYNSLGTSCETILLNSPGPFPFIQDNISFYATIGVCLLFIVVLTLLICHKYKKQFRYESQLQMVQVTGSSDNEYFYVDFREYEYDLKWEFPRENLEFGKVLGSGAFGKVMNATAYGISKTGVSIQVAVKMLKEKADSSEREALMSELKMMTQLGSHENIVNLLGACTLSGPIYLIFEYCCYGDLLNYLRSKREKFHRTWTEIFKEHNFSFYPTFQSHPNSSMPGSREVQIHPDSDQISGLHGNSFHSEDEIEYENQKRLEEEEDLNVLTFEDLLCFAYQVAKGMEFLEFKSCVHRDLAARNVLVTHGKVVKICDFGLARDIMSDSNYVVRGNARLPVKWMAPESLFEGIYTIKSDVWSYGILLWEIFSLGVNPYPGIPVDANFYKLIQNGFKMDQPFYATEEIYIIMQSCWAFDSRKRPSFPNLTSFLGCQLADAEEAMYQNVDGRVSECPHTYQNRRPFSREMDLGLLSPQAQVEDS
Method in brief: as §1

[4] = biological target: T3, CSF1R (Homo sapiens, UniProt P07333); test: Binding constant (Kd) measurement, phage-displayed kinase competition binding assay, CSF1R
T3 construct: made in house
Method in brief: as §1

[5] = MV4-11 cells, 72 hour incubation, MTS, read-out: Cellular Assay MV-proliferation IC50
[6] = read-out: Binding Assay FLT3 Kd

T3 sequence (P07333 20-972): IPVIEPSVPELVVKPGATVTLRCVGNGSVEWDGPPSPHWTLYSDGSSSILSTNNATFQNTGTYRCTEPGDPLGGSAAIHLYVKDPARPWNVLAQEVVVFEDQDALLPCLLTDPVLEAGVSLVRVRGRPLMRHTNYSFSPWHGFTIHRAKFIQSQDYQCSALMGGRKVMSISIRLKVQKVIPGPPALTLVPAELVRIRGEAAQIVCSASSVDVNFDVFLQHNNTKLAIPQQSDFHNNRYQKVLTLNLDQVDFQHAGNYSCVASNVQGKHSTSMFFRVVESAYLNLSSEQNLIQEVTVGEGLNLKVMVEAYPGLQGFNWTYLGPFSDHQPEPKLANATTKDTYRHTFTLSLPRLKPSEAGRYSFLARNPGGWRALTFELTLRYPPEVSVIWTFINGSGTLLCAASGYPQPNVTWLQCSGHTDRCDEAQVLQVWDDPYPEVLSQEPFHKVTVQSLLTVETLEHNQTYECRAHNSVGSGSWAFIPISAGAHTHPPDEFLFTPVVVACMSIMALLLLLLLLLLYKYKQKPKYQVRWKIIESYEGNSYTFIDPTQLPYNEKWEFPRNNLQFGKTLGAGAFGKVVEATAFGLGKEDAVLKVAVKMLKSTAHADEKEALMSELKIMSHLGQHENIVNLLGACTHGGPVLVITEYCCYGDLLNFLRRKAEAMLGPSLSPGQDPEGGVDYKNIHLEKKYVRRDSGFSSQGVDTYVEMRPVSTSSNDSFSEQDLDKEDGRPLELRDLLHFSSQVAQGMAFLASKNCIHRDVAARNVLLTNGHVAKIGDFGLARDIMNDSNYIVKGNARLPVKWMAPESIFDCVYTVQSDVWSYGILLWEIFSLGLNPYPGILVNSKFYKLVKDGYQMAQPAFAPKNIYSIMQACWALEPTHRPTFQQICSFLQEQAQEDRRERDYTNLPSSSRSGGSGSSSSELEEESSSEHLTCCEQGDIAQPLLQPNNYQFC
T1 sequence (P10721 26-976): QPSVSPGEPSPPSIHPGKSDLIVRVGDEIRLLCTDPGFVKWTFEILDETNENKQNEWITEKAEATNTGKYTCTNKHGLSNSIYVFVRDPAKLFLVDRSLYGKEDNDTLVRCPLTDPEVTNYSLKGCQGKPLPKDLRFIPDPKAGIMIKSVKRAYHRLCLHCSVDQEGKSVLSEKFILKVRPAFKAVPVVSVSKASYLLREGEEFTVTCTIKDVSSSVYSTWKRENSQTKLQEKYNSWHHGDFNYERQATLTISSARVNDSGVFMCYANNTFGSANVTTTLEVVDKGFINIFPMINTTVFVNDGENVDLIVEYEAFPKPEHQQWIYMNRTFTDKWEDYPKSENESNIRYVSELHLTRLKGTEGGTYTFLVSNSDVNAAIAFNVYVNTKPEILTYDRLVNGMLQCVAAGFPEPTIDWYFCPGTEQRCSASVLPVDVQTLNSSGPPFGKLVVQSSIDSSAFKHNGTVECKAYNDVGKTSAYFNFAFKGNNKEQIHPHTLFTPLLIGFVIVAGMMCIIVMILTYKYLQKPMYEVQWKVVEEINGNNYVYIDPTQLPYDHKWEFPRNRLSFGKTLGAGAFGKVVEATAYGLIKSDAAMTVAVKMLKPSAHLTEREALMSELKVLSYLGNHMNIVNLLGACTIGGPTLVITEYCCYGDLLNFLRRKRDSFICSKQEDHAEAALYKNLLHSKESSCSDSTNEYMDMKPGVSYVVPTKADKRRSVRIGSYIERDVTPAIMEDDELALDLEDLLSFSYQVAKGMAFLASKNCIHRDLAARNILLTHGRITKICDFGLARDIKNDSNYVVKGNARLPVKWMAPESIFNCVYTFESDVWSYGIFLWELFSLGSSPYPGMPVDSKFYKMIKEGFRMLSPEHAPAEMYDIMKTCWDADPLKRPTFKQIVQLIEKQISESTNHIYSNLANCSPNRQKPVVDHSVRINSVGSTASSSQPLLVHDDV

| SMILES | IC50 [1, 5] [nM] | Kd [2] [nM] | Kd [3] [nM] | Kd [4] [nM] | IC50 ([1]; MV4-11, 72 h, read-out: Cellular Assay MV-proliferation IC50 (nM)) [nM] | Kd [3, 6] [nM] |
| --- | --- | --- | --- | --- | --- | --- |
| CC(C)(C)c1cc(NC(=O)Nc2ccc(-c3cn4c(n3)sc3cc(CN5CCOCC5)ccc34)cc2)no1 [Compound D8, 1-(5-tert-Butyl-isoxazol-3-yl)-3-[4-(7-morpholin-4-ylmethyl-imidazo[2,1-b][1,3]benzothiazol-2-yl)-phenyl]-urea hydrochloride] | < 10 | < 10 | < 10 | 10 to 100 | – | – |
| CCN1CCN(Cc2ccc3c(c2)sc2nc(-c4ccc(NC(=O)Nc5cc(C(C)(C)C)on5)cc4)cn23)CC1 [Compound D9, 1-(5-tert-Butyl-isoxazol-3-yl)-3-{4-[7-(4-ethyl-piperazin-1-ylmethyl)-imidazo[2,1-b][1,3]benzothiazol-2-yl]-phenyl}-urea hydrochloride] | – | < 10 | – | 10 to 100 | < 10 | < 10 |
| CC(C)(C)c1cc(NC(=O)Nc2ccc(-c3cn4c(n3)sc3cc(CN5CCCCC5)ccc34)cc2)no1 [Compound D10, 1-(5-tert-Butyl-isoxazol-3-yl)-3-[4-(7-piperidin-1-ylmethyl-imidazo[2,1-b][1,3]benzothiazol-2-yl)-phenyl]urea hydrochloride] | < 10 | < 10 | < 10 | 10 to 100 | – | – |
| O=C(CCc1ccc2c(c1)sc1nc(-c3ccc(NC(=O)N4CCOCC4)cc3)cn12)N1CCOCC1 [Compound E1, Morpholine-4-carboxylic acid {4-[7-(3-morpholin-4-yl-3-oxo-propyl)-benzo[d]imidazo[21-b]thiazol-2-yl]-phenyl}amide] | > 100 | > 1000 | – | > 1000 | – | 100 to 1000 |
| O=C(Cc1noc2ccccc12)Nc1ccc(-c2cn3c(n2)sc2cc(OCCN4CCOCC4)ccc23)cc1 [Compound E2, 2-benzo[d]isoxazol-3-yl-N-{4-[7-(2-morpholin-4-yl-ethoxy)-benzo[d]imidazo[2,1-b]thiazol-2-yl]-phenyl}-acetamide] | < 10 | 10 to 100 | – | > 1000 | – | < 10 |
| Cc1nc(C(F)(F)F)c(C(=O)Nc2ccc(-c3cn4c(n3)sc3cc(OCCN5CCOCC5)ccc34)cc2)s1 [Compound E3, 2-methyl-4-trifluoromethyl-thiazole-5-carboxylic acid {4-[7-(2-morpholin-4-yl-ethoxy)-benzo[d]imidazo[2,1-b]thiazol-2-yl]-phenyl}-amide] | > 100 | > 1000 | – | > 1000 | – | > 1000 |
| Cc1nc(-c2ccc(Cl)cc2)sc1C(=O)Nc1ccc(-c2cn3c(n2)sc2cc(OCCN4CCOCC4)ccc23)cc1 [Compound E4, 2-(4-chloro-phenyl)-4-methyl-thiazole-5-carboxylic acid {4-[7-(2-morpholin-4-yl-ethoxy)-benzo[d]imidazo[2,1-b]thiazol-2-yl]-phenyl}-amide] | 10 to 100 | 100 to 1000 | – | 100 to 1000 | – | 10 to 100 |
| O=C(Nc1ccc(-c2cn3c(n2)sc2cc(OCCN4CCOCC4)ccc23)cc1)Nc1ccc2c(c1)OCCO2 [Compound F1, 1-(2,3-Dihydro-benzo[1,4]dioxin-6-yl)-3-{4-[7-(2-morpholin-4-yl-ethoxy)-benzo[d]imidazo[2,1-b]thiazol-2-yl]-phenyl}-urea] | < 10 | < 10 | – | 100 to 1000 | – | < 10 |
| CC(C)(C)c1ccc(NC(=O)Nc2ccc(-c3cn4c(n3)sc3cc(OCCN5CCOCC5)ccc34)cc2)cc1 [Compound F2, 1-(4-tert-Butyl-phenyl)-3-{4-[7-(2-morpholin-4-yl-ethoxy)-benzo[d]imidazo[2,1-b]thiazol-2-yl]-phenyl}-urea] | < 10 | < 10 | – | 10 to 100 | – | < 10 |
| Cc1nc2cc(NC(=O)Nc3ccc(-c4cn5c(n4)sc4cc(OCCN6CCOCC6)ccc45)cc3)ccc2s1 [Compound F8, 1-(2-methyl-benzothiazol-5-yl)-3-{4-[7-(2-morpholin-4-yl-ethoxy)-benzo[d]imidazo[2,1-b]thiazol-2-yl]-phenyl}-urea] | < 10 | 10 to 100 | – | 100 to 1000 | – | < 10 |

Reference: patent publication US8921546B2, “Imidazolothiazole compounds for the treatment of disease” (Ambit Biosciences Corporation, priority 2006, dated 2014)
